From patent publication US8431563B2 (priority 2010, dated 2013)
Like-named read-outs stand apart in the source and are kept apart here.

Legend:
[1] = target: T1, interaction between glucokinase (GK) and glucokinase regulatory protein (GKRP) (Homo sapiens, UniProt Q14397); test: biochemical; type: binding
T1 sequence (Q14397 1-625): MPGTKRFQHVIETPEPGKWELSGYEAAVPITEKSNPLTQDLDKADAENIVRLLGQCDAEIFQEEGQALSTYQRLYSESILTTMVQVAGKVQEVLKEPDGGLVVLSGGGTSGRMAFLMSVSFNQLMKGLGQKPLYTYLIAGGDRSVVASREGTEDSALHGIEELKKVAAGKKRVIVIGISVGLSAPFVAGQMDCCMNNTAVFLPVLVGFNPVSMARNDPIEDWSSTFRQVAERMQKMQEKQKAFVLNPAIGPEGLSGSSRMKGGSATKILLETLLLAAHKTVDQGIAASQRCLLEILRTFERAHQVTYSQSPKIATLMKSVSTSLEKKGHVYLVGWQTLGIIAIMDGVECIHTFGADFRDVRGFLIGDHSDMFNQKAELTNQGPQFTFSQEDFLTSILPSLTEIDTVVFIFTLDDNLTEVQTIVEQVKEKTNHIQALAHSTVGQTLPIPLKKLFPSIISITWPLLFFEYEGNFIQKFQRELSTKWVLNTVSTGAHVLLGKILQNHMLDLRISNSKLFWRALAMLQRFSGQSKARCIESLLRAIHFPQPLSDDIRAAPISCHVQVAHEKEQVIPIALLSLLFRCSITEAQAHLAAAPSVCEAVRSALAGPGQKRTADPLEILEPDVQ
How it was run: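 Measures direct GK–GKRP binding in 20 mM Tris pH 7.5 containing 1 μM sorbitol-6-phosphate, 0.05% BSA and 1 mM DTT. Compound and avi-tagged GKRP sit 20 min at room temperature before GK-fluorescein addition (6 nM in the added buffer); read after 2 h dark incubation at room temperature.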

[2] = target: T2, GKRP (Glucokinase Regulatory Protein) with human His-hepatic GK (Homo sapiens, UniProt Q14397); test: biochemical
T2 sequence (Q14397 1-625): T1 sequence (Q14397 1-625)
How it was run: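 Product formation, 13C-glucose-6-phosphate from 13C-glucose, was measured directly by LC MS/MS after acetonitrile quench. The GK reaction ran 30 min at room temperature in Tris pH 7.5 buffer with 4 mM MgCl2 and 6% DMSO. The 5× enzyme stock was 30 nM His-tagged human hepatic glucokinase.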

[3] = avi-tagged GKRP, GK-fluorescein, AlphaScreen beads, read-out: GK-GKRP IC50 (Binding)
[4] = 13C-glucose-6-phosphate formation, 280 nM GKRP (10×), 30 nM GK (5×), read-out: GK-GKRP EC50 (LC MS/MS-2)

SMILES	IC50 [1, 3] [nM]	EC50 [2, 4] [nM]	other results
C[C@H]1COCCN1C[C@H]1CN(S(=O)(=O)c2cccs2)CCN1c1ncc(C(O)(C(F)(F)F)C(F)(F)F)cn1 [Example 82, 1,1,1,3,3,3-hexafluoro-2-(2-((2S)-2-(((3S)-3-methyl-4-morpholinyl)methyl)-4-(2-thiophenylsulfonyl)-1-piperazinyl)-5-pyrimidinyl)-2-propanol]	15	26	–
Nc1ccc(S(=O)(=O)N2CCN(c3ccc(C(O)(C(F)(F)F)C(F)(F)F)cc3)CC2)s1 [Example 88, 2-(4-(4-((5-amino-2-thiophenyl)sulfonyl)-1-piperazinyl)phenyl)-1,1,1,3,3,3-hexafluoro-2-propanol]	302	150	–
C[C@H]1CN(S(=O)(=O)c2ccc(N)s2)CCN1c1ncc(C(O)(C(F)(F)F)C(F)(F)F)cn1 [Example 89, 2-(2-((2S)-4-((5-amino-2-thiophenyl)sulfonyl)-2-methyl-1-piperazinyl)-5-pyrimidinyl)-1,1,1,3,3,3-hexafluoro-2-propanol]	252	161	–
C[C@H]1CN(S(=O)(=O)c2ccc(N)nc2)CCN1c1ccc(C(O)(C(F)(F)F)C(F)(F)F)cc1 [Example 92, 2-(4-((2S)-4-((6-amino-3-pyridinyl)sulfonyl)-2-methyl-1-piperazinyl)phenyl)-1,1,1,3,3,3-hexafluoro-2-propanol]	205	233	–
C[C@H]1CN(S(=O)(=O)c2ccc(N)nc2)CCN1c1ncc(C(O)(C(F)(F)F)C(F)(F)F)cn1 [Example 93, 2-(2-((2S)-4-((6-amino-3-pyridinyl)sulfonyl)-2-methyl-1-piperazinyl)-5-pyrimidinyl)-1,1,1,3,3,3-hexafluoro-2-propanol]	190	196	–
C[C@H]1CN(S(=O)(=O)c2cccs2)CCN1c1ncc(C(O)(C(F)(F)F)C(F)(F)F)cn1 [Example 94, 1,1,1,3,3,3-hexafluoro-2-(2-((2S)-2-methyl-4-(2-thiophenylsulfonyl)-1-piperazinyl)-5-pyrimidinyl)-2-propanol]	362	470	–
Nc1ccc(S(=O)(=O)N2CCN(c3ncc(C(O)(C(F)(F)F)C(F)(F)F)cn3)[C@@H](CN3C4COCC3CC(O)C4)C2)s1 (stereo partly drawn) [Example 98 nonan-7-ol (endo), 9-(((2S)-4-((5-amino-2-thiophenyl)sulfonyl)-1-(5-(2,2,2-trifluoro-1-hydroxy-1-(trifluoromethyl)ethyl)-2-pyrimidinyl)-2-piperazinyl)methyl)-3-oxa-9-azabicyclo[3.3.1]nonan-7-ol (endo)]	2	19	–
Nc1ccc(S(=O)(=O)N2CCN(c3ncc(C(O)(C(F)(F)F)C(F)(F)F)cn3)[C@@H](CN3C4COCC3CC(=O)C4)C2)s1 [Example 98 nonan-7-one, 9-(((2S)-4-((5-amino-2-thiophenyl)sulfonyl)-1-(5-(2,2,2-trifluoro-1-hydroxy-1-(trifluoromethyl)ethyl)-2-pyrimidinyl)-2-piperazinyl)methyl)-3-oxa-9-azabicyclo[3.3.1]nonan-7-one]	–	–	IC50 ([1]; GK-GKRP IC50 (Binding), avi-tagged GKRP, GK-fluorescein, AlphaScreen beads): 16 nM; EC50 ([2]; GK-GKRP EC50 (LC MS/MS-2), 13C-glucose-6-phosphate formation, 280 nM GKRP (10×), 30 nM GK (5×)): 40 nM
Nc1ccc(S(=O)(=O)N2CCN(c3ncc(C(O)(C(F)(F)F)C(F)(F)F)cn3)[C@@H](CN3C4COCC3CC(O)C4)C2)cn1 (stereo partly drawn) [Example 99 nonan-7-ol (endo), 9-(((2S)-4-((6-amino-3-pyridinyl)sulfonyl)-1-(5-(2,2,2-trifluoro-1-hydroxy-1-(trifluoromethyl)ethyl)-2-pyrimidinyl)-2-piperazinyl)methyl)-3-oxa-9-azabicyclo[3.3.1]nonan-7-ol (endo)]	3	25	–
Nc1ccc(S(=O)(=O)N2CCN(c3ncc(C(O)(C(F)(F)F)C(F)(F)F)cn3)[C@@H](CN3C4COCC3CC(=O)C4)C2)cn1 [Example 99 nonan-7-one, 9-(((2S)-4-((6-amino-3-pyridinyl)sulfonyl)-1-(5-(2,2,2-trifluoro-1-hydroxy-1-(trifluoromethyl)ethyl)-2-pyrimidinyl)-2-piperazinyl)methyl)-3-oxa-9-azabicyclo[3.3.1]nonan-7-one]	75	97	–
CC(O)(c1ccc(N2CCN(S(=O)(=O)c3cccs3)C[C@@H]2CN2[C@@H]3COC[C@H]2CC(=O)C3)cc1)C(F)(F)F (stereo partly drawn) [Example 106, 9-(((2S)-4-(2-thiophenylsulfonyl)-1-(4-(2,2,2-trifluoro-1-hydroxy-1-methylethyl)phenyl)-2-piperazinyl)methyl)-3-oxa-9-azabicyclo[3.3.1]nonan-7-one]	35	97	–
CC(O)(c1ccc(N2CCN(S(=O)(=O)c3cccs3)C[C@@H]2CN2[C@@H]3COC[C@H]2CC(O)C3)cc1)C(F)(F)F (stereo partly drawn) [Example 107, 9-(((2S)-4-(2-thiophenylsulfonyl)-1-(4-(2,2,2-trifluoro-1-hydroxy-1-methylethyl)phenyl)-2-piperazinyl)methyl)-3-oxa-9-azabicyclo[3.3.1]nonan-7-ol (endo)]	5	16	–
CC1(O)C[C@H]2COC[C@@H](C1)N2C[C@H]1CN(S(=O)(=O)c2cccs2)CCN1c1ccc(C(C)(O)C(F)(F)F)cc1 (stereo partly drawn) [Example 108, (1R,5S)-7-methyl-9-(((2S)-4-(2-thiophenylsulfonyl)-1-(4-(2,2,2-trifluoro-1-hydroxy-1-methylethyl)phenyl)-2-piperazinyl)methyl)-3-oxa-9-azabicyclo[3.3.1]nonan-7-ol (endo)]	27	45	–
COC1C[C@H]2COC[C@@H](C1)N2C[C@H]1CN(S(=O)(=O)c2cccs2)CCN1c1ccc(C(C)(O)C(F)(F)F)cc1 (stereo partly drawn) [Example 109, 1,1,1-trifluoro-2-(4-((2S)-2-(((1R,5S)-7-methoxy-3-oxa-9-azabicyclo[3.3.1]non-9-yl)methyl)-4-(2-thiophenylsulfonyl)-1-piperazinyl)phenyl)-2-propanol (endo)]	72	81	–
CC(O)(c1ccc(N2CCN(S(=O)(=O)c3cccs3)C[C@@H]2CN2CC3CCOC3C2)cc1)C(F)(F)F (stereo partly drawn) [Example 122, 1,1,1-trifluoro-2-(4-((2S)-2-(cis-hexahydro-5H-furo[2,3-c]pyrrol-5-ylmethyl)-4-(2-thiophenylsulfonyl)-1-piperazinyl)phenyl)-2-propanol]	–	–	IC50 ([1]; GK-GKRP IC50 (Binding)): 555 nM; EC50 ([2]; GK-GKRP EC50 (LC MS/MS-2)): 313 nM
CC(O)(c1ccc(N2CCN(S(=O)(=O)c3cccs3)C[C@@H]2CN2C[C@H]3COC[C@H]3C2)cc1)C(F)(F)F (stereo partly drawn) [Example 123, 1,1,1-trifluoro-2-(4-((2S)-2-((3aR,6aS)-tetrahydro-1H-furo[3,4-c]pyrrol-5(3H)-ylmethyl)-4-(2-thiophenylsulfonyl)-1-piperazinyl)phenyl)-2-propanol]	–	–	IC50 ([1]; GK-GKRP IC50 (Binding)): 671 nM; EC50 ([2]; GK-GKRP EC50 (LC MS/MS-2)): 731 nM
Nc1ccc(S(=O)(=O)N2CCN(c3ccc(C(O)(C(F)(F)F)C(F)(F)F)cc3)[C@@H](CC3CCOCC3)C2)cn1 [Example 126, 2-(4-((2S)-4-((6-amino-3-pyridinyl)sulfonyl)-2-(tetrahydro-2H-pyran-4-ylmethyl)-1-piperazinyl)phenyl)-1,1,1,3,3,3-hexafluoro-2-propanol]	22	37	–
C[C@H]1COCCN1C[C@H]1CN(S(=O)(=O)c2ccc(N)nc2)CCN1c1ncc(C(O)(C(F)(F)F)C(F)(F)F)cn1 [Example 128, 2-(2-((2S)-4-((6-amino-3-pyridinyl)sulfonyl)-2-(((3S)-3-methyl-4-morpholinyl)methyl)-1-piperazinyl)-5-pyrimidinyl)-1,1,1,3,3,3-hexafluoro-2-propanol]	27	34	–
